The test system of one experiment is Nakaseomyces glabratus. In words: Antifungal activity against Candida glabrata C624 by broth dilution method. The class given is functional. The conditions noted are these: read-out: MIC100.
For another experiment, the target named is T1, Beta-1,3-glucan synthase (Candida albicans, UniProt O13383).
T1 sequence (O13383 whole entry): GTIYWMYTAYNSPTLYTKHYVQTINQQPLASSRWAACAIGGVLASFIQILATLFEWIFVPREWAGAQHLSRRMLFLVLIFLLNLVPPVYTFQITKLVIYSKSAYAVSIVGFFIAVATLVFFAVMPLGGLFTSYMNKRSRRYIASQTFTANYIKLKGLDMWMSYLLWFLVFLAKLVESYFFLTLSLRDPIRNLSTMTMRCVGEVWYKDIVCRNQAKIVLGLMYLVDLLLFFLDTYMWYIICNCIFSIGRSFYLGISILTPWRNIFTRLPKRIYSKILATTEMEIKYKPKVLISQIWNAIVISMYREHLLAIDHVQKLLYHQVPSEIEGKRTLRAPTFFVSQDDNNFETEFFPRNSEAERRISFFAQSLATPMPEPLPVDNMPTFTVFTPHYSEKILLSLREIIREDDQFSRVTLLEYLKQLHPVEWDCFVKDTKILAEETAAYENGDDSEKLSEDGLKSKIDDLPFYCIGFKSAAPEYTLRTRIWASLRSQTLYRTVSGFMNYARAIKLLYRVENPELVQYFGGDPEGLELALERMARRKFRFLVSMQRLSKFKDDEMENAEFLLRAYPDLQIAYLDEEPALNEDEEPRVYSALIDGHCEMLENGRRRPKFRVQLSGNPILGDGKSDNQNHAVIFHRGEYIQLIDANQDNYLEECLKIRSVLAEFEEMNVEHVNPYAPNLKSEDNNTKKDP
In words: Inhibition of Candida albicans BWP17 1,3-beta-D-glucan synthase.

A further experiment has as its system Candida albicans. The experiment in a line: Antifungal activity against Candida albicans C693 by broth dilution method. The experiment is classed as functional. The conditions noted are these: for MIC: read-out: MIC100.

≈ marks a conversion by molar mass, not a printed value.

Broadly, the IC50 is the midpoint of a concentration-inhibition curve. A higher IC50 goes with lower potency. Turning to `O=c1c(OC2CCCC2)c(N2CCN(S(=O)(=O)c3ccccn3)CC2)cnn1-c1ccccc1`, the MIC in the experiment on Nakaseomyces glabratus is 0.63 µg/mL (≈ 1.31 µM); in the experiment with Candida albicans, 5 µg/mL (≈ 10.4 µM). Also, the midpoint of inhibition against Beta-1,3-glucan synthase, the IC50, lay at 2.7 µM.

`CS(=O)(=O)N1CCN(c2cnn(-c3ccccc3)c(=O)c2OC2CCCC2)CC1`: the MIC was 0.63 µg/mL (≈ 1.51 µM) with Nakaseomyces glabratus and > 20 µg/mL in the experiment with Candida albicans. Further, inhibition against Beta-1,3-glucan synthase was half-maximal at 5.26 µM (IC50).

For `O=c1c(N2CCOCC2)c(N2CCN(S(=O)(=O)Cc3ccccc3)CC2)cnn1-c1ccccc1`, the MIC with Nakaseomyces glabratus is 0.39 µg/mL (≈ 0.787 µM); in the experiment with Candida albicans, > 50 µg/mL. Besides, on Beta-1,3-glucan synthase, it took 9.28 µM to reach half-maximal inhibition (IC50).

For `O=c1c(C2CCCCC2)c(N2CCN(S(=O)(=O)Cc3ccccc3)CC2)cnn1-c1ccccc1`, the MIC with Nakaseomyces glabratus and with Candida albicans was > 20 µg/mL in each case. At Beta-1,3-glucan synthase, inhibition was half-maximal at 4.47 µM (IC50).

As for `O=c1c(OC2CCCCC2)c(N2CCN(S(=O)(=O)Cc3ccccc3)CC2)cnn1-c1ccccc1`, the MIC turned out to be 0.05 µg/mL (≈ 0.0983 µM) with Nakaseomyces glabratus and 0.78 µg/mL (≈ 1.53 µM) in the experiment with Candida albicans. Also, on Beta-1,3-glucan synthase, the midpoint of inhibition, the IC50, lay at 1.04 µM.

In the case of `O=c1c(OC2CCCC2)c(N2CCN(S(=O)(=O)Cc3ccccc3)CC2)cnn1-c1ccccc1`, the MIC in the experiment on Nakaseomyces glabratus amounted to 0.03 µg/mL (≈ 0.0607 µM); with Candida albicans, 0.26 µg/mL (≈ 0.526 µM). Moreover, the IC50 on Beta-1,3-glucan synthase is 0.364 µM.

Consider `CCOCCCNc1c(N2CCN(S(=O)(=O)Cc3ccccc3)CC2)cnn(-c2ccccc2)c1=O`, for which the MIC is 0.78 µg/mL (≈ 1.52 µM) in the experiment on Nakaseomyces glabratus and > 50 µg/mL with Candida albicans. The same compound gave a half-maximal inhibitory concentration (IC50) against Beta-1,3-glucan synthase of 4.5 µM.

In the case of `CCCCCCCc1c(N2CCN(S(=O)(=O)Cc3ccccc3)CC2)cnn(-c2ccccc2)c1=O`, the MIC with Nakaseomyces glabratus is 0.78 µg/mL (≈ 1.53 µM); in the experiment with Candida albicans it was > 50 µg/mL. The compound further showed a half-inhibitory concentration (IC50) on Beta-1,3-glucan synthase of 2.95 µM.

In the case of `CCCCCCCOc1c(N2CCN(S(=O)(=O)Cc3ccccc3)CC2)cnn(-c2ccccc2)c1=O`, the MIC in the experiment on Nakaseomyces glabratus was < 0.1 µg/mL; with Candida albicans, 0.78 µg/mL (≈ 1.49 µM). At Beta-1,3-glucan synthase, this compound gave an IC50 of 0.229 µM.

Consider `CCOCCOc1c(N2CCN(S(=O)(=O)Cc3ccccc3)CC2)cnn(-c2ccccc2)c1=O`, for which the values for the MIC in the experiment with Nakaseomyces glabratus and with Candida albicans were 0.1 µg/mL (≈ 0.201 µM) and 3.1 µg/mL (≈ 6.22 µM), respectively. Further, at Beta-1,3-glucan synthase, the IC50 is 1.81 µM.

What is called MIC50 is an inhibitory concentration at the 50% level, which refers to growth in some studies and to a panel of isolates in others. For `CCCCCCCSc1c(N2CCN(S(=O)(=O)Cc3ccccc3)CC2)cnn(-c2ccccc2)c1=O`, the MIC with Nakaseomyces glabratus is 0.78 µg/mL (≈ 1.44 µM). At Beta-1,3-glucan synthase, this compound had an IC50 of 2.03 µM. The compound also came in with an MIC50 against Candida albicans of 3.1 µg/mL (≈ 5.73 µM).

Consider `CCCCCCC[S+]([O-])c1c(N2CCN(S(=O)(=O)Cc3ccccc3)CC2)cnn(-c2ccccc2)c1=O` (stereo unspecified), for which the figures for the MIC in the experiment on Nakaseomyces glabratus and in the experiment with Candida albicans were 0.59 µg/mL (≈ 1.06 µM) and 25 µg/mL (≈ 44.9 µM), respectively. The compound further showed an IC50 against Beta-1,3-glucan synthase of 5.39 µM.

As for `CCCCCCCS(=O)(=O)c1c(N2CCN(S(=O)(=O)Cc3ccccc3)CC2)cnn(-c2ccccc2)c1=O`, the MIC with Nakaseomyces glabratus was 1.6 µg/mL (≈ 2.79 µM); in the experiment with Candida albicans, > 50 µg/mL. For the same compound, the IC50 against Beta-1,3-glucan synthase is > 17.5 µM.

`CC1CN(S(=O)(=O)Cc2ccccc2)CCN1c1cnn(-c2ccccc2)c(=O)c1OC1CCCCC1` (stereo unspecified): the MIC in the experiment on Nakaseomyces glabratus is 0.39 µg/mL (≈ 0.746 µM); with Candida albicans it was 6.3 µg/mL (≈ 12.1 µM). Half-maximal inhibition against Beta-1,3-glucan synthase (IC50) was put at 4.21 µM.

For the compound `C[C@@H]1CN(c2cnn(-c3ccccc3)c(=O)c2OC2CCCCC2)CCN1S(=O)(=O)Cc1ccccc1`, in the experiment on Nakaseomyces glabratus, the MIC came out at 0.78 µg/mL (≈ 1.49 µM). This compound gave an IC50 at Beta-1,3-glucan synthase of 5.36 µM. This compound returned an MIC50 in the experiment with Candida albicans of 19 µg/mL (≈ 36.4 µM).

Regarding `C[C@H]1CN(c2cnn(-c3ccccc3)c(=O)c2OC2CCCCC2)CCN1S(=O)(=O)Cc1ccccc1`, the MIC in the experiment with Nakaseomyces glabratus stood at 0.39 µg/mL (≈ 0.746 µM). For the same compound, on Beta-1,3-glucan synthase, the IC50 is 8.23 µM. In the experiment with Candida albicans, this compound returned an MIC50 of 2 µg/mL (≈ 3.83 µM).

For the compound `O=c1c(OC2CCCCC2)c(N2CC3CC2CN3S(=O)(=O)Cc2ccccc2)cnn1-c1ccccc1` (stereo unspecified), the MIC in the experiment with Nakaseomyces glabratus and in the experiment on Candida albicans was > 50 µg/mL in each case. Also, on Beta-1,3-glucan synthase, the IC50 was > 19.2 µM.

The record behind these values is ChEMBL document CHEMBL1681708, “The synthesis and structure-activity relationship of pyridazinones as glucan synthase inhibitors” (Bioorg Med Chem Lett, 2011).
